Like-named read-outs stand apart in the source and are kept apart here. Marks after values point to notes of the source that are not given here.
Molecular target: T1, mAChR M1 (UniProt P11229)
T1 sequence (P11229 1-460): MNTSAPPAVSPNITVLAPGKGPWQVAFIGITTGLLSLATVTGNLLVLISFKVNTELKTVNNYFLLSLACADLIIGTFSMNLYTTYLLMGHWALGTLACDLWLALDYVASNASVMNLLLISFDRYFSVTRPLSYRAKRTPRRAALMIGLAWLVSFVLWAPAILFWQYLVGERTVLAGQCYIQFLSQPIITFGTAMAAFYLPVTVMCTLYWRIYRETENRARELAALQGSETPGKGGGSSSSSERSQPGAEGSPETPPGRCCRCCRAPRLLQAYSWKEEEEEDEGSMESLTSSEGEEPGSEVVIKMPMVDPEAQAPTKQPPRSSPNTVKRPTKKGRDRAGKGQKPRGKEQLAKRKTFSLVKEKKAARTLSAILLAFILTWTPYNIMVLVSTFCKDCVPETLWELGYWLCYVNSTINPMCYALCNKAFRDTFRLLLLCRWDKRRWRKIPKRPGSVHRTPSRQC
Test: mAChR M1 cell-based functional assay (calcium mobilization, antagonist mode)
Excerpt: Chinese hamster ovary (CHO-K1) cells stably expressing rat (r)M1 were purchased from the American Type Culture Collection and cultured according to their indicated protocol. CHO cells stably expressing human (h)M2, hM3, and hM5 were described previously (Levey, et al., 1991); hM1 and hM4 cDNAs were purchased from Missouri S&T cDNA Resource; rM4 cDNA was provided by T. I. Bonner (National Institutes of Health, Bethesda, Md.). rM2 and rM3 were cloned from a rat brain cDNA library and sequence verified. hM1, rM2, rM3, hM4, and rM4 cDNAs were used to stably transfect CHO-K1 cells purchased from the American Type Culture Collection using Lipofectamine-2000. To make stable rM2, hM2, rM3, hM4, and rM4 cell lines for use in calcium mobilization assays, these cells also were stably transfected with a chimeric G-protein (Gqi5) (provided by B. R. Conklin, University of California, San Francisco) using Lipofectamine 2000. rM1, hM1, rM3, hM3, rM5, and hM5 cells were grown in Ham's F-12 medium containing 10% heat-inactivated fetal bovine serum (FBS), 20 mM HEPES, and 50 μg/mL G418 sulfate. rM2-Gqi5, hM2-Gqi5, and hM4-Gqi5 cells were grown in the same medium also containing 500 μg/mL Hygromycin B. Stable rM4-Gqi5 cells were grown in DMEM containing 10% heat-inactivated FBS, 20 mM HEPES, 400 μg/mL G418 sulfate, and […].
For high throughput measurement of antagonist inhibited increases in intracellular calcium, CHO-K1 cells stably expressing muscarinic receptors were plated in growth medium lacking G418 and hygromycin at 15,000 cells/20 μL/well in Greiner 384-well black-walled, tissue culture (TC)-treated, clear-bottom plates (VWR). Cells were incubated overnight at 37° C. and 5% CO2. The next day, cells were washed using an ELX 405 (BioTek) with four washes (80 μL) of assay buffer then aspirated to 20 μL. Next, 20 μL of 16 μM Fluo-4/acetoxymethyl ester (Invitrogen, Carlsbad, Calif.) prepared as a 2.3 mM stock in DMSO and mixed in a 1:1 ratio with 10% (w/v) Pluronic F-127 and diluted in assay buffer was added to the wells and the cell plates were incubated for 50 min at 37° C. and 5% CO2. Dye was removed by washing with the ELX 405 (four 80 μL washes of assay buffer) then aspirated to 20 μL. Compound master plates were formatted in an 11 point CRC format (1:3 dilutions) in 100% DMSO with a starting concentration of 10 mM using the BRAVO liquid handler (Agilent). Test compound CRCs were then transferred to daughter plates (240 nL) using the Echo acoustic plate reformatter (Labcyte, Sunnyvale, Calif.) and then diluted into assay buffer (40 μL) to a 2× stock using a Thermo Fisher Combi (Thermo Fisher Scientific, Waltham, Mass.).
Calcium flux was measured using the Functional Drug Screening System (FDSS) 6000 (Hamamatsu Corporation, Tokyo, Japan) as an increase in the fluorescent static ratio. Compounds were applied to cells (20 μL, 2×) using the automated system of the FDSS 6000 at 4 s into the 300 s protocol and the data were collected at 1 Hz. At 144 s into the 300 s protocol, 10 μL of an EC20 concentration of the muscarinic receptor agonist acetylcholine was added (5×), followed by the addition of 12 μL an EC80 concentration of acetylcholine at the 230 s time point (5×). Agonist activity was analyzed as a concentration-dependent increase in calcium mobilization upon compound addition. Positive allosteric modulator activity was analyzed as a concentration-dependent increase in the EC20 acetylcholine response. Antagonist activity was analyzed as a concentration-dependent decrease in the EC80 acetylcholine response. Concentration-response curves were generated using a four-parameter logistical equation in XLfit curve fitting software (IDBS, Bridgewater, N.J.) for Excel (Microsoft, Redmond, Wash.) or Prism (GraphPad Software, Inc., San Diego, Calif.).
The calcium mobilization assay was used to determine “potency”.

[1] = concentration of antagonist decreasing calcium flux by 50%; EC80 acetylcholine response; CHO-K1 cells expressing mAChR M1; read-out: Potency (IC50)
[2] = dash = baseline or about zero remaining activity (table footnote)
[3] = activity remaining at top dose of 30 μM test compound, as percentage of the response to an approx. EC80 concentration of ACh

IC50 [1] [µM]	Remaining Activity (%) [3]	Compound	Remaining Activity (%) [2]	IC50 (read-out: Potency (IC50); concentration of antagonist decreasing calcium flux by 50%; EC80 acetylcholine response; CHO-K1 cells expressing mAChR M1) [µM]
2	–	Cc1nc(C(F)(F)F)c(S(=O)(=O)N2CC(C(=O)N3CCN(c4ccncc4)CC3)C2)s1 [B27]	— (Unless otherwise indicated with a numerical value, the percent remaining activity is baseline or about zero, i.e. as indicated by “—”)	–
2.2	–	O=C(C1CN(S(=O)(=O)c2cccc3nsnc23)C1)N1CCN(c2ccncc2)CC1 [B28]	— (Unless otherwise indicated with a numerical value, the percent remaining activity is baseline or about zero, i.e. as indicated by “—”)	–
2.8	–	O=C(C1CN(S(=O)(=O)c2ccccc2OC(F)(F)F)C1)N1CCN(c2ccncc2)CC1 [B29]	— (Unless otherwise indicated with a numerical value, the percent remaining activity is baseline or about zero, i.e. as indicated by “—”)	–
–	–	O=C(C1CN(S(=O)(=O)c2cccc3c(Cl)nc(Cl)cc23)C1)N1CCN(c2ccncc2)CC1 [B30]	— (Unless otherwise indicated with a numerical value, the percent remaining activity is baseline or about zero, i.e. as indicated by “—”)	–
> 10	11%	O=C(C1CN(S(=O)(=O)c2cccc3nonc23)C1)N1CCN(c2ccccn2)CC1 [B31]	–	–
> 10	34%	O=C(C1CN(S(=O)(=O)c2cccc3nonc23)C1)N1CCCN(c2ccncc2)CC1 [B32]	–	–
> 10	48%	O=C(C1CN(S(=O)(=O)c2cccc3nonc23)C1)N1CCN(c2nccs2)CC1 [B33]	–	–
–	11%	O=C(C1CN(S(=O)(=O)c2cccc(Cl)c2F)C1)N1CCN(c2ccncc2)CC1 [B34]	–	–
> 10	32%	O=C(C1CN(S(=O)(=O)c2cc(Cl)ccc2F)C1)N1CCN(c2ccncc2)CC1 [B35]	–	–
–	27%	O=C(C1CN(S(=O)(=O)c2cccc(Cl)c2)C1)N1CCN(c2ccncc2)CC1 [B36]	–	–
> 10	26%	O=C(C1CN(S(=O)(=O)c2ccc3cn[nH]c3c2)C1)N1CCN(c2ccncc2)CC1 [B37]	–	–
> 10	23%	COc1ccc(S(=O)(=O)N2CC(C(=O)N3CCN(c4ccncc4)CC3)C2)cn1 [B38]	–	–
> 10	48%	O=C(C1CN(S(=O)(=O)c2cnc3ccccc3c2)C1)N1CCN(c2ccncc2)CC1 [B39]	–	–
> 10	41%	Cc1ccnc(S(=O)(=O)N2CC(C(=O)N3CCN(c4ccncc4)CC3)C2)c1 [B40]	–	–
> 10	37%	O=C(C1CN(S(=O)(=O)c2ccc(C(F)(F)F)nc2)C1)N1CCN(c2ccncc2)CC1 [B41]	–	–
> 10	34%	O=C(C1CN(S(=O)(=O)c2ccc(Cl)cn2)C1)N1CCN(c2ccncc2)CC1 [B42]	–	–
> 10	43%	CC(C)(C)CS(=O)(=O)N1CC(C(=O)N2CCN(c3ccncc3)CC2)C1 [B43]	–	–
> 10	59%	CC(C)S(=O)(=O)N1CC(C(=O)N2CCN(c3ccncc3)CC2)C1 [B44]	–	–

IC50 [1] [µM]	Remaining Activity (%) [3]	Compound	Remaining Activity (%) [2]	IC50 (read-out: Potency (IC50); concentration of antagonist decreasing calcium flux by 50%; EC80 acetylcholine response; CHO-K1 cells expressing mAChR M1) [µM]
> 10	27%	O=C(C1CN(S(=O)(=O)c2cccc3c2OCCO3)C1)N1CCN(c2ccncc2)CC1 [B45]	–	–
> 10	52%	CCC(C)S(=O)(=O)N1CC(C(=O)N2CCN(c3ccncc3)CC2)C1 (stereo not drawn) [B46]	–	–
> 10	50%	O=C(C1CN(S(=O)(=O)C2CCCCC2)C1)N1CCN(c2ccncc2)CC1 [B47]	–	–
> 10	30%	O=C(C1CN(S(=O)(=O)c2cccc3cnccc23)C1)N1CCC(c2cccnc2)C1 (stereo not drawn) [B48]	–	–
> 10	48%	CN1C(=O)Cc2cc(S(=O)(=O)N3CC(C(=O)N4CCN(c5ccncc5)CC4)C3)ccc21 [B49]	–	–
> 10	59%	Cn1ccc2cc(S(=O)(=O)N3CC(C(=O)N4CCN(c5ccncc5)CC4)C3)ccc21 [B50]	–	–
> 10	60%	O=C(C1CN(S(=O)(=O)c2cccc3cnccc23)C1)N1CCc2cccnc2C1 [B51]	–	–
3.5	–	O=C(C1CN(S(=O)(=O)c2cccc3ncccc23)C1)N1CC2CN(c3ccncc3)CC2C1 (stereo not drawn) [B52]	— (Unless otherwise indicated with a numerical value, the percent remaining activity is baseline or about zero, i.e. as indicated by “—”)	–
–	–	O=C(C1CN(S(=O)(=O)c2cccc3nsnc23)C1)N1CC2CN(c3ccncc3)CC2C1 (stereo not drawn) [B53]	— (Unless otherwise indicated with a numerical value, the percent remaining activity is baseline or about zero, i.e. as indicated by “—”)	–
0.93	–	O=C(C1CN(S(=O)(=O)c2cccnc2Cl)C1)N1CC2CN(c3ccncc3)CC2C1 (stereo not drawn) [B54]	— (Unless otherwise indicated with a numerical value, the percent remaining activity is baseline or about zero, i.e. as indicated by “—”)	–
0.96	–	O=C(C1CN(S(=O)(=O)c2cccc3nonc23)C1)N1CC2CN(c3ccncc3)CC2C1 (stereo not drawn) [B56]	— (Unless otherwise indicated with a numerical value, the percent remaining activity is baseline or about zero, i.e. as indicated by “—”)	–
0.95	–	O=C(C1CN(S(=O)(=O)c2ccc3c(c2)OCO3)C1)N1CC2CN(c3ccncc3)CC2C1 (stereo not drawn) [B57]	— (Unless otherwise indicated with a numerical value, the percent remaining activity is baseline or about zero, i.e. as indicated by “—”)	–
–	–	O=C(C1CN(S(=O)(=O)c2cccc(Cl)c2Cl)C1)N1CC2CN(c3ccncc3)CC2C1 (stereo not drawn) [B58]	— (Unless otherwise indicated with a numerical value, the percent remaining activity is baseline or about zero, i.e. as indicated by “—”)	–
2.1	–	O=C(C1CN(S(=O)(=O)c2cccc(F)c2)C1)N1CC2CN(c3ccncc3)CC2C1 (stereo not drawn) [B59]	— (Unless otherwise indicated with a numerical value, the percent remaining activity is baseline or about zero, i.e. as indicated by “—”)	–
–	–	Cc1cc2c(S(=O)(=O)N3CC(C(=O)N4CC5CN(c6ccncc6)CC5C4)C3)cccc2cn1 (stereo not drawn) [B60]	— (Unless otherwise indicated with a numerical value, the percent remaining activity is baseline or about zero, i.e. as indicated by “—”)	–
> 10	≧80% **	O=C(C1CN(S(=O)(=O)c2cccc3nonc23)C1)N1CCC(O)(c2ccncc2)CC1 [B61]	–	–
> 10	≧80%	Cn1ccnc1N1CCN(C(=O)C2CN(S(=O)(=O)c3cccc4nonc34)C2)CC1 [B62]	–	–

Compound	IC50 [1] [µM]	Remaining Activity (%) [3]	Remaining Activity (%) [2]	IC50 (read-out: Potency (IC50); concentration of antagonist decreasing calcium flux by 50%; EC80 acetylcholine response; CHO-K1 cells expressing mAChR M1) [µM]
CC(C)(C)CS(=O)(=O)N1CC(C(=O)N2CC3CN(c4ccncc4)CC3C2)C1 (stereo not drawn) [B55]	–	56%	–	> 10

Source: patent US8697888B2, “Substituted (1-(methylsulfonyl)azetidin-3-yl)(heterocycloalkyl)methanone analogs as antagonists of muscarinic acetylcholine M1 receptors” (Vanderbilt University, priority 2012, dated 2014)
